Assay results: patent US10259776B2, “Branched 3-phenylpropionic acid derivatives and their use” (BAYER INTELLECTUAL PROPERTY GMBH, priority 2011, dated 2019)

How the values were obtained:
[1] = molecular target: sGC in the CHO reporter cell (Rattus norvegicus (Rat), UniProt P20595); test: Action at a recombinant guanylate cyclase reporter cell line; format: cell-based; settings: CHO reporter cell in vitro
Protocol: The cellular action of the compounds according to the invention is determined at a recombinant guanylate cyclase reporter cell line, as described in F. Wunder et al., Anal. Biochem. 339, 104-112 (2005).

[2] = molecular target: Haem-free sGC (recombinant soluble guanylate cyclase) (Rattus norvegicus (Rat), UniProt P20595); test: Stimulation of recombinant soluble guanylate cyclase (sGC) in vitro, haem-free enzyme; format: biochemical; settings: haem-free (0.5% Tween 20), n = 5
Chain of Haem-free sGC (recombinant soluble guanylate cyclase) (P20595 whole entry): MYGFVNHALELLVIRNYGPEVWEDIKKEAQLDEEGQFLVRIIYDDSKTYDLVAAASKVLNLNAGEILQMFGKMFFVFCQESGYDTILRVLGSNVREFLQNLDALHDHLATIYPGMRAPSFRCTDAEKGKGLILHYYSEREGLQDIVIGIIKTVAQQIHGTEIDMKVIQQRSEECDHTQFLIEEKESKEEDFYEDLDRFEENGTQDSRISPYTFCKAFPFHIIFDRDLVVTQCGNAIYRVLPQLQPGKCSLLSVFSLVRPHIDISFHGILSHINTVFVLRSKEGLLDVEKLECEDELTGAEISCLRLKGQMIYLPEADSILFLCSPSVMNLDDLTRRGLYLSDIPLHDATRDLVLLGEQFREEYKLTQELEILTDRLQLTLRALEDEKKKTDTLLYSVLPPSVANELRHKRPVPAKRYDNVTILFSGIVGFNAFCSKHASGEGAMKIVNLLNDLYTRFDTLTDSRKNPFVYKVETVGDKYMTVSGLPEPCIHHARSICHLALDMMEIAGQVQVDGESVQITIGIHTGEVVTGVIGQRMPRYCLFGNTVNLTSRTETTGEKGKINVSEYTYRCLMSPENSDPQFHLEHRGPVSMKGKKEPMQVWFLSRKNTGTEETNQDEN
Chain of Haem-free sGC (recombinant soluble guanylate cyclase) (P19686 whole entry partner): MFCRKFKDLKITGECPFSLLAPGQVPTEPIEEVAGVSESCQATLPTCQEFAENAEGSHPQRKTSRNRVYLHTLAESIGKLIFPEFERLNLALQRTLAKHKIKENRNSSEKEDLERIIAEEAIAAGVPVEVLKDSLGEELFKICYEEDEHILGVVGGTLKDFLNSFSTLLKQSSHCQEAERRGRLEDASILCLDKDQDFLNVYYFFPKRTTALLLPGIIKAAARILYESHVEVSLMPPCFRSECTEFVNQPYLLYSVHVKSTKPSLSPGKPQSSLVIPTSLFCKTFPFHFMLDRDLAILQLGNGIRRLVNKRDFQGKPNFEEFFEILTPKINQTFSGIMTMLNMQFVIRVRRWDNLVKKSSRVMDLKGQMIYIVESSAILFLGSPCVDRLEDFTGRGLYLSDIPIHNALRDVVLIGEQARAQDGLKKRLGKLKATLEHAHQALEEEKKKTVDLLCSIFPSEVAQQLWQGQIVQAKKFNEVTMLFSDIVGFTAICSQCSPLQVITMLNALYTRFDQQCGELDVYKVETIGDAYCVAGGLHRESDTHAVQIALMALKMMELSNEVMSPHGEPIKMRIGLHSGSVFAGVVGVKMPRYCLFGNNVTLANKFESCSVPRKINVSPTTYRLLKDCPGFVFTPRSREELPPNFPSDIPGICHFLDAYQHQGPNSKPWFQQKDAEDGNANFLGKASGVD
Protocol: Investigations on the stimulation of recombinant soluble guanylate cyclase (sGC) by the compounds according to the invention with and without sodium nitroprusside, and with and without the haem-dependent sGC inhibitor 1H-1,2,4-oxadiazolo[4,3a]quinoxalin-1-one (ODQ), are carried out by the method described in detail in the following reference: M. Hoenicka, E. M. Becker, H. Apeler, T. Sirichoke, H. Schroeder, R. Gerzer and J.-P. Stasch, “Purified soluble guanylyl cyclase expressed in a baculovirus/Sf9 system: Stimulation by YC-1, nitric oxide, and carbon oxide”, J. Mol. Med. 77 (1999), 14-23. The haem-free guanylate cyclase is obtained by adding Tween 20 to the sample buffer (0.5% in the final concentration).
(§1) The activation of sGC by a test substance is reported as x-fold stimulation of the basal activity.

[3] = molecular target: Haem-containing sGC (recombinant soluble guanylate cyclase) (Rattus norvegicus (Rat), UniProt P20595); test: Stimulation of recombinant soluble guanylate cyclase (sGC) in vitro, haem-containing enzyme; format: biochemical; settings: for Stimulation (x-fold) of recombinant sGC, haem-containing sGC, basal: n = 5
Chain of Haem-containing sGC (recombinant soluble guanylate cyclase) (P20595 whole entry): as the sequence (P20595 whole entry) above
Chain of Haem-containing sGC (recombinant soluble guanylate cyclase) (P19686 whole entry partner): as the sequence (P19686 whole entry partner) above
From the text: Hoenicka, E. M. Becker, H. Apeler, T. Sirichoke, H. Schroeder, R. Gerzer and J.-P. Stasch, “Purified soluble guanylyl cyclase expressed in a baculovirus/Sf9 system: Stimulation by YC-1, nitric oxide, and carbon oxide”, J. Mol. Med. 77 (1999), 14-23. The haem-free guanylate cyclase is obtained by adding Tween 20 to the sample buffer (0.5% in the final concentration).
as §1

Chain of sGC in the CHO reporter cell (P20595 whole entry): as the sequence (P20595 whole entry) above
Chain of sGC in the CHO reporter cell (P19686 whole entry partner): as the sequence (P19686 whole entry partner) above

SMILES	MEC (minimum effective concentration), sGC-activating activity in the CHO reporter cell [1] [nM]	other results
CC(C)C(C)(CC(=O)O)c1ccc(Cl)c(NC(=O)[C@H](c2ccc(Cl)cc2)[C@@H](C)C(F)(F)F)c1 (single isomer, unassigned) [Example 3]	0.3	
CC(C)C(C)(CC(=O)O)c1ccc(Cl)c(NC(=O)[C@H](c2ccc(Cl)cc2)[C@@H](C)C(F)(F)F)c1 (single isomer, unassigned) [Example 4]	3	
C[C@H]([C@H](C(=O)Nc1cc(C(C)(CC(=O)O)C2CCC2)ccc1Cl)c1ccc(Cl)cc1)C(F)(F)F (single isomer, unassigned) [Example 5]	0.3	
C[C@H]([C@H](C(=O)Nc1cc(C(C)(CC(=O)O)C2CCC2)ccc1Cl)c1ccc(Cl)cc1)C(F)(F)F (single isomer, unassigned) [Example 6]	1	
CC(C)C(CC(=O)O)c1ccc(Cl)c(NC(=O)[C@H](c2ccc(Cl)cc2)[C@@H](C)C(F)(F)F)c1 (single isomer, unassigned; (+)) [Example 1]	3	
CC(C)C(CC(=O)O)c1ccc(Cl)c(NC(=O)[C@H](c2ccc(Cl)cc2)[C@@H](C)C(F)(F)F)c1 (single isomer, unassigned; (+)) [Example 2]	6.5	
C[C@H]([C@H](C(=O)Nc1cc(C(C)(CC(=O)O)C2CC2)ccc1Cl)c1ccc(Cl)cc1)C(F)(F)F (some centres unmarked) [Example 7]	300	
CCc1ccc([C@@H](C(=O)Nc2cc(C(CC(=O)O)C(C)C)ccc2Cl)[C@@H](C)C(F)(F)F)cc1 (some centres unmarked) [Example 8]	1	
CC(C)C(CC(=O)O)c1ccc(Cl)c(NC(=O)[C@H](c2ccc(Cl)c(F)c2)[C@@H](C)C(F)(F)F)c1 (some centres unmarked) [Example 9]	1	
CC(C)c1ccc([C@@H](C(=O)Nc2cc(C(CC(=O)O)C(C)C)ccc2Cl)[C@@H](C)C(F)(F)F)cc1 (some centres unmarked) [Example 10]	0.3	
CC(C)C(CC(=O)O)c1ccc(Cl)c(NC(=O)[C@H](c2ccc(F)cc2)[C@@H](C)C(F)(F)F)c1 (some centres unmarked) [Example 11]	3	
CC(C)C(CC(=O)O)c1ccc(Cl)c(NC(=O)C(c2ccc(CC(F)(F)F)cc2)C(C)C(F)(F)F)c1 (centres unmarked) [Example 12]	1	
CC(C)C(CC(=O)O)c1ccc(Cl)c(NC(=O)[C@H](c2ccc(C3CC3(F)F)cc2)[C@@H](C)C(F)(F)F)c1 (some centres unmarked) [Example 13]	0.3	
CC(C)C(CC(=O)O)c1ccc(Cl)c(NC(=O)[C@H](c2ccc(C(C)(C)C)cc2)[C@@H](C)C(F)(F)F)c1 (some centres unmarked) [Example 14]	0.3	
COc1cc([C@@H](C(=O)Nc2cc(C(CC(=O)O)C(C)C)ccc2Cl)[C@@H](C)C(F)(F)F)ccc1Cl (some centres unmarked) [Example 15]	3	

Further lines, with some results ahead:

MEC (minimum effective concentration), sGC-activating activity in the CHO reporter cell [1] [nM]	SMILES	other results
10	C[C@H]([C@H](C(=O)Nc1cc(C(CC(=O)O)C2(C)CC2)ccc1Cl)c1ccc(Cl)cc1)C(F)(F)F (single isomer, unassigned) [Example 26]	
0.3	C[C@H]([C@H](C(=O)Nc1cc(C(CC(=O)O)CC2CC2)ccc1Cl)c1ccc(Cl)cc1)C(F)(F)F (single isomer, unassigned) [Example 35]	
3	C[C@H]([C@H](C(=O)Nc1cc(C(CC(=O)O)CC2CC2)ccc1Cl)c1ccc(Cl)cc1)C(F)(F)F (single isomer, unassigned) [Example 36]	
1.8	C[C@H]([C@H](C(=O)Nc1cc(C(CC(=O)O)C2CC2)ccc1Cl)c1ccc(Cl)cc1)C(F)(F)F (single isomer, unassigned; (+)) [Example 22]	Stimulation (x-fold) of recombinant sGC, haem-free sGC, basal ([2]; 0.01 μM Example 22): 1.2 ± 0.1 x-fold; Stimulation (x-fold) of recombinant sGC, haem-free sGC, basal ([2]; 0.1 μM Example 22): 1.6 ± 0.5 x-fold; Stimulation (x-fold) of recombinant sGC, haem-free sGC, basal ([2]; 1.0 μM Example 22): 4.9 ± 1.5 x-fold; Stimulation (x-fold) of recombinant sGC, haem-free sGC, basal ([2]; 10 μM Example 22): 14.2 ± 2.0 x-fold; Stimulation (x-fold) of recombinant sGC, haem-containing sGC, +0.01 μM DEA/NO ([3]; 0.01 μM Example 22): 4.4 ± 1.3 x-fold; Stimulation (x-fold) of recombinant sGC, haem-containing sGC, +10 μM ODQ ([3]; 0.01 μM Example 22): 5.7 ± 1.6 x-fold; Stimulation (x-fold) of recombinant sGC, haem-containing sGC, basal ([3]; 0.01 μM Example 22): 1.6 ± 0.3 x-fold; Stimulation (x-fold) of recombinant sGC, haem-containing sGC, +0.01 μM DEA/NO ([3]; 0.1 μM Example 22): 3.4 ± 0.9 x-fold; Stimulation (x-fold) of recombinant sGC, haem-containing sGC, +10 μM ODQ ([3]; 0.1 μM Example 22): 6.1 ± 1.7 x-fold; Stimulation (x-fold) of recombinant sGC, haem-containing sGC, basal ([3]; 0.1 μM Example 22): 1.6 ± 0.5 x-fold; Stimulation (x-fold) of recombinant sGC, haem-containing sGC, +0.01 μM DEA/NO ([3]; 1.0 μM Example 22): 4.4 ± 1.4 x-fold; Stimulation (x-fold) of recombinant sGC, haem-containing sGC, +10 μM ODQ ([3]; 1.0 μM Example 22): 8.4 ± 2.2 x-fold; Stimulation (x-fold) of recombinant sGC, haem-containing sGC, basal ([3]; 1.0 μM Example 22): 2.4 ± 1.0 x-fold; Stimulation (x-fold) of recombinant sGC, haem-containing sGC, +0.01 μM DEA/NO ([3]; 10 μM Example 22): 7.8 ± 2.5 x-fold; Stimulation (x-fold) of recombinant sGC, haem-containing sGC, +10 μM ODQ ([3]; 10 μM Example 22): 18.3 ± 5.4 x-fold; Stimulation (x-fold) of recombinant sGC, haem-containing sGC, basal ([3]; 10 μM Example 22): 4.9 ± 1.2 x-fold; Effect of combination with the NO donor DEA/NO on sGC stimulation ([3]; haem-containing sGC, combination with DEA/NO): no synergistic effect
1	C[C@H]([C@H](C(=O)Nc1cc(C(CC(=O)O)C2CCC2)ccc1Cl)c1ccc(Cl)cc1)C(F)(F)F (single isomer, unassigned; (+)) [Example 33]	
10	C[C@H]([C@H](C(=O)Nc1cc(C(CC(=O)O)C2CCC2)ccc1Cl)c1ccc(Cl)cc1)C(F)(F)F (single isomer, unassigned; (+)) [Example 34]	
3	Cc1ccc([C@@H](C(=O)Nc2cc(C(CC(=O)O)C(C)C)ccc2Cl)[C@@H](C)C(F)(F)F)cc1 (some centres unmarked) [Example 16]	
1	Cc1cc([C@@H](C(=O)Nc2cc(C(CC(=O)O)C(C)C)ccc2Cl)[C@@H](C)C(F)(F)F)ccc1Cl (some centres unmarked) [Example 17]	
300	CC(C)C(CC(=O)O)c1ccc(Cl)c(NC(=O)C(c2ccc(Cl)cc2)C2CCC(F)(F)C2)c1 (centres unmarked) [Example 18]	
30	CC(C)C(CC(=O)O)c1ccc(Cl)c(NC(=O)C(c2ccc(Cl)cc2)C2CCC(F)(F)C2)c1 (centres unmarked) [Example 19]	
1000	CC(C)C(CC(=O)O)c1ccc(Cl)c(NC(=O)C(c2ccc(Cl)cc2)C2CCC(F)(F)C2)c1 (centres unmarked) [Example 20]	
10	CC(C)C(CC(=O)O)c1ccc(Cl)c(NC(=O)C(c2ccc(Cl)cc2)C2CCC(F)(F)C2)c1 (centres unmarked) [Example 21]	
3	C[C@H]([C@H](C(=O)Nc1cc(C(CC(=O)O)C2CC2)ccc1Cl)c1ccc(Cl)cc1)C(F)(F)F (some centres unmarked) [Example 23]	
10	COC(C)(C)C(CC(=O)O)c1ccc(Cl)c(NC(=O)[C@H](c2ccc(Cl)cc2)[C@@H](C)C(F)(F)F)c1 (some centres unmarked) [Example 25]	
3	C[C@H]([C@H](C(=O)Nc1cc(C(CC(=O)O)C2(F)CC2)ccc1Cl)c1ccc(Cl)cc1)C(F)(F)F (some centres unmarked) [Example 27]	
30	C[C@H]([C@H](C(=O)Nc1cc(C(CC(=O)O)C2CC(F)(F)C2)ccc1Cl)c1ccc(Cl)cc1)C(F)(F)F (some centres unmarked) [Example 28]	
3	C[C@H](C(C(=O)Nc1cc(C(CC(=O)O)C2CC2(F)F)ccc1Cl)c1ccc(Cl)cc1)C(F)(F)F (stereo partly drawn) [Example 31, 3-(4-Chloro-3-{[(3R)-2-(4-chlorophenyl)-4,4,4-trifluoro-3-methylbutanoyl]amino}phenyl)-3-(2,2-difluorocyclopropyl)propanoic acid]	
3	C[C@H](C(C(=O)Nc1cc(C(CC(=O)O)C2CC2(F)F)ccc1Cl)c1ccc(Cl)cc1)C(F)(F)F (stereo partly drawn) [Example 32, 3-(4-Chloro-3-{[(3R)-2-(4-chlorophenyl)-4,4,4-trifluoro-3-methylbutanoyl]amino}phenyl)-3-(2,2-difluorocyclopropyl)propanoic acid]	
